# Results from ChEMBL document CHEMBL4359819, “Exploiting the 1-(4-fluorobenzyl)piperazine fragment for the development of novel tyrosinase inhibitors as anti-melanogenic agents: Design, synthesis, structural insights and biological profile” (Eur J Med Chem, 2019).
# Activity calls are given as the source filed them. No cut-off for these calls is given here.
# Target: T1, Tyrosinase (Agaricus bisporus, UniProt O42713)
# T1 sequence (O42713 whole entry): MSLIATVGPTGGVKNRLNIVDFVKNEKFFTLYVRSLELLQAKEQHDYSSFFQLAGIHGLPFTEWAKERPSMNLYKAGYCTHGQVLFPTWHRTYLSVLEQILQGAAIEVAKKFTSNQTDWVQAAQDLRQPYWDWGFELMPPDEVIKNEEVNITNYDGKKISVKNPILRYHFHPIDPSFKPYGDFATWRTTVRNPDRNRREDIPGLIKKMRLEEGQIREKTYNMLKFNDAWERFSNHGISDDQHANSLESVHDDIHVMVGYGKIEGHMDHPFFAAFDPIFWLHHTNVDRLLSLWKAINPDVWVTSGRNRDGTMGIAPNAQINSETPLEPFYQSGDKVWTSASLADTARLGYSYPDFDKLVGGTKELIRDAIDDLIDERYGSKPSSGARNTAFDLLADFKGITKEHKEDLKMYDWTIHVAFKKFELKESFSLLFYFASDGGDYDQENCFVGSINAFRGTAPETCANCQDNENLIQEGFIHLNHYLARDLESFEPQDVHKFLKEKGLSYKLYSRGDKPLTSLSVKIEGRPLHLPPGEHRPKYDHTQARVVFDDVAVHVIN
# Assay: Inhibition of mushroom tyrosinase assessed as reduction in dopachrome production using L-DOPA as substrate after 5 mins by spectrophotometric analysis
# Settings: not given
row,IC50 [nM],SMILES
1,1400,COc1ccc(C(=O)N2CCN(Cc3ccc(F)cc3)CC2)c(OC)c1
2,2030,O=C(c1ccccc1Br)N1CCN(Cc2ccc(F)cc2)CC1
3,3430,Cc1ccc(C(=O)N2CCN(Cc3ccc(F)cc3)CC2)c(C)c1
4,960,O=C(c1ccc([N+](=O)[O-])cc1[N+](=O)[O-])N1CCN(Cc2ccc(F)cc2)CC1
5,14700,Nc1ccc(C(=O)N2CCN(Cc3ccc(F)cc3)CC2)cc1
6,1050,O=C(c1ccc(Br)cc1Br)N1CCN(Cc2ccc(F)cc2)CC1
7,3810,Nc1cccc(C(=O)N2CCN(Cc3ccc(F)cc3)CC2)c1
8,3510,O=C(c1ccc(Cl)cc1)N1CCN(Cc2ccc(F)cc2)CC1
9,3600,O=C(c1cccc([N+](=O)[O-])c1)N1CCN(Cc2ccc(F)cc2)CC1
10,870,O=C(c1ccccc1[N+](=O)[O-])N1CCN(Cc2ccc(F)cc2)CC1
11,2050,O=C(c1ccc([N+](=O)[O-])cc1)N1CCN(Cc2ccc(F)cc2)CC1
12,5300,O=C(c1cccc(Cl)c1)N1CCN(Cc2ccc(F)cc2)CC1
13,1490,O=C(c1ccc(O)cc1O)N1CCN(Cc2ccc(F)cc2)CC1
14,2400,O=C(c1cccc(Br)c1)N1CCN(Cc2ccc(F)cc2)CC1
15,480,O=C(c1ccccc1C(F)(F)F)N1CCN(Cc2ccc(F)cc2)CC1
16,790,O=C(c1ccc(Cl)cc1Cl)N1CCN(Cc2ccc(F)cc2)CC1
17,3380,O=C(c1ccc(C(F)(F)F)cc1)N1CCN(Cc2ccc(F)cc2)CC1
18,1910,O=C(c1ccc(F)cc1F)N1CCN(Cc2ccc(F)cc2)CC1
19,8430,O=C(c1cccc(C(F)(F)F)c1)N1CCN(Cc2ccc(F)cc2)CC1
20,3120,O=C(c1ccccc1Cl)N1CCN(Cc2ccc(F)cc2)CC1
21,3670,Nc1ccc(C(=O)N2CCN(Cc3ccc(F)cc3)CC2)c(N)c1
22,1630,O=C(c1ccc(C(F)(F)F)cc1C(F)(F)F)N1CCN(Cc2ccc(F)cc2)CC1
23,10900,Nc1ccccc1C(=O)N1CCN(Cc2ccc(F)cc2)CC1

row,SMILES,IC50 [nM]
1,O=C(c1ccc(Br)cc1)N1CCN(Cc2ccc(F)cc2)CC1,4610

# Target: T2, Tyrosinase (Agaricus bisporus) (UniProt O42713)
# T2 sequence (whole entry): T1 sequence (O42713 whole entry)
# Assay: Competitive inhibition of mushroom tyrosinase assessed as Vmax for substrate at 0.48 to 1.92 uM using varying levels of L-DOPA as substrate by Lineweaver-Burk plot analysis
# Settings: not given
row,inhibition,SMILES
1,Active,O=C(c1ccc([N+](=O)[O-])cc1[N+](=O)[O-])N1CCN(Cc2ccc(F)cc2)CC1

# System: B16-F10
# Assay: Inhibition of alpha-MSH-stimulated melanogenesis in mouse B16F10 cells assessed as melanin content at 10 uM measured after 48 hrs relative to control
# Assay type: functional
# Settings: B16-F10, 48 h
row,SMILES,inhibition at 10 µM [%]
1,O=C(c1ccc([N+](=O)[O-])cc1[N+](=O)[O-])N1CCN(Cc2ccc(F)cc2)CC1,22.8

# Target: T2, Tyrosinase (Agaricus bisporus)
# Assay: Potency index, ratio of kojic acid IC50 to compound IC50 for inhibition of mushroom tyrosinase using L-DOPA as substrate
# Settings: not given
row,Ratio IC50,SMILES
1,20,O=C(c1ccc([N+](=O)[O-])cc1[N+](=O)[O-])N1CCN(Cc2ccc(F)cc2)CC1

# Target: T2, Tyrosinase (Agaricus bisporus)
# Assay: Competitive inhibition of mushroom tyrosinase assessed as increase in Km for substrate at 0.48 to 1.92 uM using varying levels of L-DOPA as substrate by Lineweaver-Burk plot analysis
# Settings: not given
row,inhibition,SMILES
1,Active,O=C(c1ccc([N+](=O)[O-])cc1[N+](=O)[O-])N1CCN(Cc2ccc(F)cc2)CC1
